{"source": "ChEMBL document CHEMBL4385604", "about": "“Identification of Pyrrolo[2,3- d]pyrimidine-Based Derivatives as Potent and Orally Effective Fms-like Tyrosine Receptor Kinase 3 (FLT3) Inhibitors for Treating Acute Myelogenous Leukemia” (J Med Chem, 2019)", "key": {"MOLM-13 [1]": {"tested_on": "MOLM-13", "test": "Induction of apoptosis in human MOLM13 cells assessed as early apoptotic cells at 1 nM after 48 hrs by Annexin V/propidium iodide staining based flow cytometry (reference value: 5.97%)", "type": "functional"}, "[2]": {"test": "Toxicity in NOD/SCID mouse xenografted with human MV4-11 cells at 1 to 3 mg/kg, po qd for 14 days", "type": "organism-based", "details": "in vivo, 336 h"}, "MOLM-13 [3]": {"tested_on": "MOLM-13", "test": "Induction of apoptosis in human MOLM13 cells assessed as necrotic cells at 1 nM after 48 hrs by Annexin V/propidium iodide staining based flow cytometry (reference value: 0.29%)", "type": "functional"}, "MOLM-13 [4]": {"tested_on": "MOLM-13", "test": "Induction of apoptosis in human MOLM13 cells assessed as viable cells at 10 uM after 48 hrs by Annexin V/propidium iodide staining based flow cytometry (reference value: 88.2%)", "type": "functional", "details": "MOLM-13, 48 h, read-out: Activity"}, "MV4-11 [5]": {"tested_on": "MV4-11", "test": "Inhibition of MAPK in human MV4-11 cells assessed as ratio of phosphorylated ERK to beta-actin level at 30 nM after 2 hrs by Western blot analysis relative to control", "type": "cell-based"}, "MOLM-13 [6]": {"tested_on": "MOLM-13", "test": "Induction of apoptosis in human MOLM13 cells assessed as viable cells at 10 nM after 48 hrs by Annexin V/propidium iodide staining based flow cytometry (reference value: 88.2%)", "type": "functional", "details": "MOLM-13, 48 h, read-out: Activity"}, "MV4-11 [7]": {"tested_on": "MV4-11", "test": "Induction of apoptosis in human MV4-11 cells assessed as early apoptotic cells at 10 nM after 48 hrs by Annexin V/propidium iodide staining based flow cytometry (reference value: 2.76%)", "type": "functional"}, "[8]": {"molecular_target": "Receptor-type tyrosine-protein kinase FLT3 (Homo sapiens, UniProt P36888, R834Q)", "test": "Binding affinity to human partial length FLT3 R834Q mutant (V592 to Y969 residues) expressed in HEK293 cells measured after 1 hr by qPCR analysis", "type": "cell-based"}, "MV4-11 [9]": {"tested_on": "MV4-11", "test": "Antitumour activity against human MV4-11 cells xenografted in NOD/SCID mouse assessed as tumour growth inhibition at 10 mg/kg, po qd for 18 days measured on day 24 by caliper method", "type": "functional, organism-based"}, "[10]": {"molecular_target": "Mast/stem cell growth factor receptor Kit (Homo sapiens, UniProt P10721)", "sequence (P10721 whole entry)": "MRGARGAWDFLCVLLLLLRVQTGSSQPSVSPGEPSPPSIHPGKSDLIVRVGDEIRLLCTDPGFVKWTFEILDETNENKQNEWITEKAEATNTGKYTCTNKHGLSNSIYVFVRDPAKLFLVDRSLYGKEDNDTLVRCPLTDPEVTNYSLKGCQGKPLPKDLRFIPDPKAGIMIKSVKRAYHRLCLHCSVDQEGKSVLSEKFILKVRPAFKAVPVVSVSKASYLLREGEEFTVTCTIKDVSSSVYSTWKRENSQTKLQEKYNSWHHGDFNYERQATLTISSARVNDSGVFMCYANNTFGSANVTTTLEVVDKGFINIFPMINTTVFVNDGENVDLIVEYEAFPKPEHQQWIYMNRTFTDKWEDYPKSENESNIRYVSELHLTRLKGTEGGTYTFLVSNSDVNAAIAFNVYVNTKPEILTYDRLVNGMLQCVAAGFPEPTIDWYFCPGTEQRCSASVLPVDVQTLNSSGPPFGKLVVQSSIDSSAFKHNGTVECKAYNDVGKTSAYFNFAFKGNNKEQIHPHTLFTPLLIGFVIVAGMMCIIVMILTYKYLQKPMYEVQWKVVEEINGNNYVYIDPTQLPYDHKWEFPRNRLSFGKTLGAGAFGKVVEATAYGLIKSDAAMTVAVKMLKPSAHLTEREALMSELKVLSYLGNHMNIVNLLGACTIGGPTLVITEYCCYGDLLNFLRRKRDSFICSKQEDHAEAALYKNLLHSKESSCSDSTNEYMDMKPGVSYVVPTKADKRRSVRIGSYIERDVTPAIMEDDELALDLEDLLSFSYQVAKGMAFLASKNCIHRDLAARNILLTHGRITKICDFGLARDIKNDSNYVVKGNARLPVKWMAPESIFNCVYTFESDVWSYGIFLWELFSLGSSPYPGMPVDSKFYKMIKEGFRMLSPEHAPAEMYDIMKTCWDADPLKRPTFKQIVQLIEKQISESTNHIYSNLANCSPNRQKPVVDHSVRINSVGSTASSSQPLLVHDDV", "test": "Inhibition of recombinant human c-Kit (544 to end residues) using poly(Glu, Tyr) 4:1 as substrate measured after 40 mins in presence of [gamma-33P]-ATP by scintillation counting analysis"}, "[11]": {"tested_on": "Receptor-type tyrosine-protein kinase FLT3 (Homo sapiens), P36888 [UNDEFINED MUTATION]", "test": "Inhibition of FLT3 ITD mutant in human MV4-11 cells assessed as ratio of phosphorylated STAT5 to beta-actin level at 30 nM after 2 hrs by Western blot analysis relative to control", "type": "cell-based"}, "MV4-11 [12]": {"tested_on": "MV4-11", "test": "Induction of apoptosis in human MV4-11 cells assessed as necrotic cells at 1 nM after 48 hrs by Annexin V/propidium iodide staining based flow cytometry (reference value: 0.06%)", "type": "functional"}, "MOLM-13 [13]": {"tested_on": "MOLM-13", "test": "Induction of apoptosis in human MOLM13 cells assessed as late apoptotic cells at 1 nM after 48 hrs by Annexin V/propidium iodide staining based flow cytometry (reference value: 5.52%)", "type": "functional"}, "[14]": {"test": "Tmax in Sprague-Dawley rat at 5 mg/kg, po by LC-MS/MS analysis", "type": "ADME, organism-based", "details": "in vivo"}, "MV4-11 [15]": {"tested_on": "MV4-11", "test": "Induction of apoptosis in human MV4-11 cells assessed as viable cells at 10 nM after 48 hrs by Annexin V/propidium iodide staining based flow cytometry (reference value: 94.4%)", "type": "functional", "details": "MV4-11, 48 h, read-out: Activity"}, "MV4-11 [16]": {"tested_on": "MV4-11", "test": "Induction of apoptosis in human MV4-11 cells assessed as necrotic cells at 100 nM after 48 hrs by Annexin V/propidium iodide staining based flow cytometry (reference value: 0.06%)", "type": "functional"}, "MOLM-13 [17]": {"tested_on": "MOLM-13", "test": "Induction of apoptosis in human MOLM13 cells assessed as late apoptotic cells at 10 nM after 48 hrs by Annexin V/propidium iodide staining based flow cytometry (reference value: 5.52%)", "type": "functional"}, "MV4-11 [18]": {"tested_on": "MV4-11", "test": "Cell cycle arrest in human MV4-11 cells assessed as accumulation at S phase at 1 nM after 24 hrs by propidium iodide staining-based flow cytometric analysis (reference value: 30.12%)", "type": "functional"}, "MOLM-13 [19]": {"tested_on": "MOLM-13", "test": "Cell cycle arrest in human MOLM13 cells assessed as accumulation at G0/G1 phase at 3 nM after 24 hrs by propidium iodide staining-based flow cytometric analysis (reference value: 44.53%)", "type": "functional"}, "[20]": {"test": "Toxicity in NOD/SCID mouse xenografted with human MV4-11 cells at 10 mg/kg, po qd for 18 days", "type": "organism-based", "details": "in vivo, 432 h"}, "MV4-11 [21]": {"tested_on": "MV4-11", "test": "Cell cycle arrest in human MV4-11 cells assessed as accumulation at S phase at 3 nM after 24 hrs by propidium iodide staining-based flow cytometric analysis (reference value: 30.12%)", "type": "functional"}, "MV4-11 [22]": {"tested_on": "MV4-11", "test": "Antitumour activity against human MV4-11 cells xenografted in po dosed NOD/SCID mouse assessed as tumour growth inhibition administered daily for 14 days", "type": "functional, organism-based"}, "MV4-11 [23]": {"tested_on": "MV4-11", "test": "Induction of apoptosis in human MV4-11 cells assessed as early apoptotic cells at 1 nM after 48 hrs by Annexin V/propidium iodide staining based flow cytometry (reference value: 2.76%)", "type": "functional"}, "MOLM-13 [24]": {"tested_on": "MOLM-13", "test": "Cell cycle arrest in human MOLM13 cells assessed as accumulation at G0/G1 phase at 30 nM after 24 hrs by propidium iodide staining-based flow cytometric analysis (reference value: 44.53%)", "type": "functional"}, "MV4-11 [25]": {"tested_on": "MV4-11", "test": "Induction of apoptosis in human MV4-11 cells assessed as necrotic cells at 10 uM after 48 hrs by Annexin V/propidium iodide staining based flow cytometry (reference value: 0.06%)", "type": "functional"}}, "note": "Calls of active or inactive are those of the source. No cut-off for these calls is given here."}
{"smiles": "C=CCn1cc(-c2ccc(NC(=O)Nc3cc(C(C)(C)C)on3)cc2)c2c(N)ncnc21", "values": [{"measurement": "Activity", "setting": "MOLM-13 [1]", "value": 5.67, "unit": "%"}, {"measurement": "Activity", "setting": "[2]", "value": "Non-Toxic"}, {"measurement": "Activity", "setting": "MOLM-13 [3]", "value": 0.76, "unit": "%"}, {"measurement": "viability at 10 µM", "setting": "MOLM-13 [4]", "value": 0.48, "unit": "%"}, {"measurement": "fold change (FC)", "setting": "MV4-11 [5]", "value": 0}, {"measurement": "viability at 0.01 µM", "setting": "MOLM-13 [6]", "value": 66.1, "unit": "%"}, {"measurement": "Activity", "setting": "MV4-11 [7]", "value": 9.57, "unit": "%"}, {"measurement": "Kd", "setting": "[8]", "value": 0.0102, "unit": "µM"}, {"measurement": "TGI", "setting": "MV4-11 [9]", "value": "inactive"}, {"measurement": "IC50", "setting": "[10]", "value": "> 0.3", "unit": "µM"}, {"measurement": "fold change (FC)", "setting": "[11]", "value": 0}, {"measurement": "Activity", "setting": "MV4-11 [12]", "value": 0.13, "unit": "%"}, {"measurement": "Activity", "setting": "MOLM-13 [13]", "value": 8.57, "unit": "%"}, {"measurement": "Tmax", "setting": "[14]", "value": 45, "unit": "min"}, {"measurement": "viability at 0.01 µM", "setting": "MV4-11 [15]", "value": 79.3, "unit": "%"}, {"measurement": "Activity", "setting": "MV4-11 [16]", "value": 0.36, "unit": "%"}, {"measurement": "Activity", "setting": "MOLM-13 [17]", "value": 18.3, "unit": "%"}, {"measurement": "Activity", "setting": "MV4-11 [18]", "value": 32.51, "unit": "%"}, {"measurement": "Activity", "setting": "MOLM-13 [19]", "value": 83.62, "unit": "%"}, {"measurement": "Activity", "setting": "[20]", "value": "Non-Toxic"}, {"measurement": "Activity", "setting": "MV4-11 [21]", "value": 8.81, "unit": "%"}, {"measurement": "TGI", "setting": "MV4-11 [22]", "value": "Dose-dependent effect"}, {"measurement": "Activity", "setting": "MV4-11 [23]", "value": 2.56, "unit": "%"}, {"measurement": "Activity", "setting": "MOLM-13 [24]", "value": 94.68, "unit": "%"}, {"measurement": "Activity", "setting": "MV4-11 [25]", "value": 2.13, "unit": "%"}]}
